What all share (format): cell-based
Data set [1] addresses T1, human α1H T-type channels (Homo sapiens, UniProt O95180).
T1 construct: expressed in transfected cells; host or cells: HEK 293
Kind of data set: T-type calcium channel block, whole cell patch clamp in HEK cells (α1H). As to conditions: HEK cells, patch clamp, mainly non-inactivated protocol; values above 10 μM shown as 10 μM; read-out: T-type Calcium Channel Block α1H IC50. A general note: In patch-clamp work, channel activity is measured electrically.

In data set [2] the target is T2, human α1G T-type channels (Homo sapiens, UniProt O43497).
T2 construct: expressed in transfected cells; host or cells: HEK 293
In words: T-type calcium channel block, whole cell patch clamp in HEK cells (α1G). The note with it: HEK cells, patch clamp, mainly non-inactivated protocol; values above 10 μM shown as 10 μM, below 0.30 μM shown as 0.30 μM; read-out: T-type Calcium Channel Block α1G IC50.

The target of the next data set is hERG K+ channel (Homo sapiens, UniProt Q12809). Kind of data set: hERG K+ Channel Block. In general terms: Block of hERG is tested as a sign of cardiac risk.

Read-outs that look alike come from different tables or passages of the source.

T2 sequence (O43497 whole entry): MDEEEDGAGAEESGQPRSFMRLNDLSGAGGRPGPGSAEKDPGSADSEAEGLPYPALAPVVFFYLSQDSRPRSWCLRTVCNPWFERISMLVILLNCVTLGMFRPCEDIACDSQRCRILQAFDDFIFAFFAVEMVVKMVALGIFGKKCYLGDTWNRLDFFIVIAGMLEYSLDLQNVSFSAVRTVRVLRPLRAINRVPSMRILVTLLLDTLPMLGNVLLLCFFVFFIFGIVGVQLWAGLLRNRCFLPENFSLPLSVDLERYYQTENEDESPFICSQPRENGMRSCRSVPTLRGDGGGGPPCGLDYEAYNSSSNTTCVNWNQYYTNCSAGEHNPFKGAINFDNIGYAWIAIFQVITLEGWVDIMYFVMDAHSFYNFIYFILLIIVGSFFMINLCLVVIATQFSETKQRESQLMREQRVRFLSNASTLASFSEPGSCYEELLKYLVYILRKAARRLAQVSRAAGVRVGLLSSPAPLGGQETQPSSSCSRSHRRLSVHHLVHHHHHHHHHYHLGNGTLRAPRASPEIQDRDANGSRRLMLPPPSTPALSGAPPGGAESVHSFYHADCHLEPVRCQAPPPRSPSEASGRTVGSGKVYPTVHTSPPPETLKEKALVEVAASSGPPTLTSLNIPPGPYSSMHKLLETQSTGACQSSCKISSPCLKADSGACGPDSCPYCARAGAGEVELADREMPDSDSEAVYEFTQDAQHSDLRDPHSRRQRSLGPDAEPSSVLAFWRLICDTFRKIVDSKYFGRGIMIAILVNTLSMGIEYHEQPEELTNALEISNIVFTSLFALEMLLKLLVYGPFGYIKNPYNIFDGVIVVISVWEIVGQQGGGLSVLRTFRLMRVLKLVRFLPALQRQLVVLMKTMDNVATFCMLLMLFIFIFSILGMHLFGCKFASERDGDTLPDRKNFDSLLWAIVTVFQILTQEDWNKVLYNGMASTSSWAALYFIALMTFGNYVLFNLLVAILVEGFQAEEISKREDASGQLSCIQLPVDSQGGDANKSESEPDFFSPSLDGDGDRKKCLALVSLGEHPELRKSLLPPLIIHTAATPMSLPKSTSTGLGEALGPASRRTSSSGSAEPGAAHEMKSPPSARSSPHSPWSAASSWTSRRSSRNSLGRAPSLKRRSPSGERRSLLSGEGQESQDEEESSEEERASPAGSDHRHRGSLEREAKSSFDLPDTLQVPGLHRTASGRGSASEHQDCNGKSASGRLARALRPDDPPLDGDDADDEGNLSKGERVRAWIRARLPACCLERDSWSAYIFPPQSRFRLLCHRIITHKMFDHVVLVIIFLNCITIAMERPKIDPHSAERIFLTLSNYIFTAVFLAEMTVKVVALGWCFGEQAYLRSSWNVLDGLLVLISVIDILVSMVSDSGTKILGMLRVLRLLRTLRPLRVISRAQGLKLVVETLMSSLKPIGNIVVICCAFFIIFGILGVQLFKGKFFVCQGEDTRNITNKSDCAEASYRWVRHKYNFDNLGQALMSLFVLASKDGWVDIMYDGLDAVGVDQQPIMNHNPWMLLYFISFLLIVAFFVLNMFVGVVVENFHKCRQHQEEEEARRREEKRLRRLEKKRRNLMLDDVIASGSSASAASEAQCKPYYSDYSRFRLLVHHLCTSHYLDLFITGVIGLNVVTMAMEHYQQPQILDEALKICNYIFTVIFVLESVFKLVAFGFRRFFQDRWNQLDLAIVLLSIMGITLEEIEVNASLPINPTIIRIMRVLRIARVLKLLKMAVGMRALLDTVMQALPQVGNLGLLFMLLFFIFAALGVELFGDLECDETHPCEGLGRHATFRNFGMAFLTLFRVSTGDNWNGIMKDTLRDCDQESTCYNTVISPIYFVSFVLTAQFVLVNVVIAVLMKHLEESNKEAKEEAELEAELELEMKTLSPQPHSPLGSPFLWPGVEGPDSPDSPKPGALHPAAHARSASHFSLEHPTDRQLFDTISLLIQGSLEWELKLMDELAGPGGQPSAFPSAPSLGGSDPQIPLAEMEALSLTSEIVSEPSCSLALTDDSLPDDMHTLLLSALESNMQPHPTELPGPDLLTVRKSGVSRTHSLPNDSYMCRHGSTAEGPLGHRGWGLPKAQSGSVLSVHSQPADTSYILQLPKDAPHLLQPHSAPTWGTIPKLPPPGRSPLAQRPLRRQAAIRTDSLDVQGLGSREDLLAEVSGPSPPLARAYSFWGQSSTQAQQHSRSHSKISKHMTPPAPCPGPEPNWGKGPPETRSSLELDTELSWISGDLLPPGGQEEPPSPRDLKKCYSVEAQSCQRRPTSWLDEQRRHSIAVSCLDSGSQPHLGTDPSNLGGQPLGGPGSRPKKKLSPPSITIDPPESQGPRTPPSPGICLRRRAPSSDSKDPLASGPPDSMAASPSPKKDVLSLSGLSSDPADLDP
T1 sequence (O95180 whole entry): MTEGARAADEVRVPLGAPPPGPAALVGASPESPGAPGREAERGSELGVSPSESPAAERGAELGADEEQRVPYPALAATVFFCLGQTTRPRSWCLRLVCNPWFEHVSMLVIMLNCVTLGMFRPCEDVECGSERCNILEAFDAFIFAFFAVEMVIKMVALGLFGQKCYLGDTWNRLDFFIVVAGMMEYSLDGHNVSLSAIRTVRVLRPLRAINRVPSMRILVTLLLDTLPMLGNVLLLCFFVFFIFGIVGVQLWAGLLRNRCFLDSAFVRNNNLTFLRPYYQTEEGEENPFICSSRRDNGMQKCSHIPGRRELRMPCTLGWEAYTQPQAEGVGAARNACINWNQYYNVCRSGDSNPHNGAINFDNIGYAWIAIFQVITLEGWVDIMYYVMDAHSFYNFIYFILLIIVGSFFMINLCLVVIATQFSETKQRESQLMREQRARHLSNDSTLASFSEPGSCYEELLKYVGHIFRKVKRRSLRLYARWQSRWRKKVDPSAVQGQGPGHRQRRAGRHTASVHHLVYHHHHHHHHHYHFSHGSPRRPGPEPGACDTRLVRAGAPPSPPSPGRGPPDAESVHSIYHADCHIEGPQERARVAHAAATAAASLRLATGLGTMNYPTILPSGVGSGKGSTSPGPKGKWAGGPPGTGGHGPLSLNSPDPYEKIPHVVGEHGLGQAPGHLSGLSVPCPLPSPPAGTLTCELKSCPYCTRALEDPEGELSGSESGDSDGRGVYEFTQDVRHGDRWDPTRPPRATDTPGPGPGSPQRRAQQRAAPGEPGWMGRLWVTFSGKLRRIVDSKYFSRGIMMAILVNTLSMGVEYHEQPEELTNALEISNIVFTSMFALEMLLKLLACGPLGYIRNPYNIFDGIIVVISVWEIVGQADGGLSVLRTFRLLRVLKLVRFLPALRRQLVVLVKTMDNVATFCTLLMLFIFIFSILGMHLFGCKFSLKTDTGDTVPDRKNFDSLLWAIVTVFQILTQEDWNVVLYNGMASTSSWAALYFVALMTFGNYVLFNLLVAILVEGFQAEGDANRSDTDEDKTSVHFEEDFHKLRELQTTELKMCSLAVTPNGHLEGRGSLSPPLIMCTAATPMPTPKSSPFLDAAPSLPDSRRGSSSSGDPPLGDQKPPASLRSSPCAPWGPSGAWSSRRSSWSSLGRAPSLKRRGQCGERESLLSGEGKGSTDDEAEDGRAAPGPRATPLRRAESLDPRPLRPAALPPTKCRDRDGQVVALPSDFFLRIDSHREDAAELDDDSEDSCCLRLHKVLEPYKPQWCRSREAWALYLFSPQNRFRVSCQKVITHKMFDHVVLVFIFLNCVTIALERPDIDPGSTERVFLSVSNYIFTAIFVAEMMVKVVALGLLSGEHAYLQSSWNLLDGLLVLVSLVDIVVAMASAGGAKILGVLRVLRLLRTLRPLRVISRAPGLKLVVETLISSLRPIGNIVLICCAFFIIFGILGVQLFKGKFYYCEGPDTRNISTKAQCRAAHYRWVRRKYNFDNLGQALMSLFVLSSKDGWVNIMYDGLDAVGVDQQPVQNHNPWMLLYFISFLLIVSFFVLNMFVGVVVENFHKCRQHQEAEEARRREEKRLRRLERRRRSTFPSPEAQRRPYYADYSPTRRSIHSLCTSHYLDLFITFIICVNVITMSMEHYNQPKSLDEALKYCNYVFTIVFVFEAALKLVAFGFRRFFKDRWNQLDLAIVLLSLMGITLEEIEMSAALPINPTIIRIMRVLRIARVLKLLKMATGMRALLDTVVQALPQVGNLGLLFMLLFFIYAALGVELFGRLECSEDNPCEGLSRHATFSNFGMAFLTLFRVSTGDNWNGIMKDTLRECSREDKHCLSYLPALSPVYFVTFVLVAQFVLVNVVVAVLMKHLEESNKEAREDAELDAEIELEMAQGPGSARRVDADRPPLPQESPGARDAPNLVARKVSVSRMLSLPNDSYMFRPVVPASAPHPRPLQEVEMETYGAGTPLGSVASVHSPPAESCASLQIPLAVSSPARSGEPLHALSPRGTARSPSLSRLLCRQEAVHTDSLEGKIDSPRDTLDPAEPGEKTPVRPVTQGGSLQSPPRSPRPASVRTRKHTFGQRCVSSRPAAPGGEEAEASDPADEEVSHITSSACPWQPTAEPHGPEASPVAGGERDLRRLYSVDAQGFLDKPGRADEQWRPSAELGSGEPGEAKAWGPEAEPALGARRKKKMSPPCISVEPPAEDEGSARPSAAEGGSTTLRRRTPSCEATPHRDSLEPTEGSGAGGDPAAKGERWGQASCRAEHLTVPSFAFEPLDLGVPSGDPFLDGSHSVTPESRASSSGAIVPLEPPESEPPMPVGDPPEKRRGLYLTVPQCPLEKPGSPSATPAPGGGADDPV

For the compound `CC(C)(NC(=O)CN1CCC(CNC(=O)c2cccc(OC(F)(F)F)c2)CC1)C(F)(F)F` [Compound 462, N-((1-(2-oxo-2-(1,1,1-trifluoro-2-methylpropan-2-ylamino)ethyl)piperidin-4-yl)methyl)-3-(trifluoromethoxy) benzamide], the IC50 (in general, the concentration at which inhibition is half-maximal) is 30 nM in data set [1], under 300 nM in data set [2] and 4100 nM against hERG K+ channel.
Turning to `O=C(NCC1CCN(CC(=O)N2CCC[C@H]2C(F)(F)F)CC1)c1cccc(Br)c1` [Compound 468, (S)-3-bromo-N-((1-(2-oxo-2-(2-(trifluoromethyl)pyrrolidin-1-yl)ethyl)piperidin-4-yl)methyl)benzamide], the 50% inhibitory concentration (IC50) in data set [1] was 90 nM; in data set [2] it was under 300 nM; against hERG K+ channel it was 4200 nM.
Taken in the same sequence, the figures for `O=C(NCC1CCN(CC(=O)N2CCC[C@H]2C(F)(F)F)CC1)c1cccc(Cl)c1` [Compound 469, (S)-3-chloro-N-((1-(2-oxo-2-(2-(trifluoromethyl)pyrrolidin-1-yl)ethyl)piperidin-4-yl)methyl)benzamide] were 120 nM, under 300 nM and 9500 nM.
Taken in the same sequence, the figures for `O=C(NCC1CCN(CC(=O)N2CCC[C@H]2C(F)(F)F)CC1)c1cc(F)cc(Cl)c1` [Compound 470, (S)-3-chloro-5-fluoro-N-((1-(2-oxo-2-(2-(trifluoromethyl)pyrrolidin-1-yl)ethyl)piperidin-4-yl)methyl)benzamide] were 70 nM, under 300 nM and 2600 nM.
Turning to `O=C(NCC1CCN(CC(=O)N2CCC[C@H]2C(F)(F)F)CC1)c1cccc(OC(F)(F)F)c1` [Compound 471, (S)-N-((1-(2-oxo-2-(2-(trifluoromethyl)pyrrolidin-1-yl)ethyl)piperidin-4-yl)methyl)-3-(trifluoromethoxy)benzamide], the IC50 was 60 nM in data set [1], under 300 nM in data set [2] and 2300 nM on hERG K+ channel.
On the same counts, the results for `O=C(NCC1CCN(CCNC(=O)C2(C(F)(F)F)CC2)CC1)c1cc(F)cc(Cl)c1` [Compound 472, 3-chloro-5-fluoro-N-((1-(2-(1-(trifluoromethyl)cyclopropanecarbox-amido)ethyl)piperidin-4-yl)methyl) benzamide] are 40 nM, under 300 nM and 2800 nM.
Taken in the same sequence, the figures for `O=C(NCC1CCN(CCNC(=O)C2(C(F)(F)F)CC2)CC1)c1cccc(C(F)(F)F)c1` [Compound 473, 3-(trifluoromethyl)-N-((1-(2-(1-(trifluoromethyl)cyclopropanecarbox-amido)ethyl)piperidin-4-yl)methyl) benzamide] were 130 nM, 680 nM and 2200 nM.
`Cc1cc(F)cc(C(=O)NCC2CCN(CC(=O)NC3(C)CCC3)CC2)c1` [Compound 476, 3-fluoro-5-methyl-N-((1-(2-(1-mtrhylcyclobutylamino)-2-oxoethyl)piperidin-4-yl)methyl) benzamide]: the 50% inhibitory concentration (IC50) is 140 nM in data set [1], under 300 nM in data set [2] and at least 16600 nM against hERG K+ channel (human).
For the compound `COc1cc(F)cc(C(=O)NCC2CCN(CC(=O)NC3(C)CCC3)CC2)c1` [Compound 477, 3-fluoro-5-methoxy-N-((1-(2-(1-methylcyclobutylamino)-2-oxoethyl)piperidin-4-yl)methyl) benzamide], the IC50 in data set [1] is 60 nM; in data set [2], under 300 nM; on hERG K+ channel (human), at least 16600 nM.
On the same counts, the results for `COc1cc(OC)cc(C(=O)NCC2CCN(CC(=O)NC3(C)CCC3)CC2)c1` [Compound 478, 3,5-dimethoxy-N-((1-(2-(1-methylcyclobutylamino)-2-oxoethyl)piperidin-4-yl)methyl) benzamide] are 110 nM, under 300 nM and at least 16600 nM.
For `CC1(NC(=O)CN2CCC(CNC(=O)c3cc(F)cc(Cl)c3)CC2)CCC1` [Compound 482, 3-chloro-5-fluoro-N-((1-(2-(1-methylcyclobutylamino)-2-oxoethyl)piperidin-4-yl)methyl) benzamide], the IC50 in data set [1] is 80 nM; in data set [2], under 300 nM; on hERG K+ channel, 7900 nM.
Taken in the same sequence, the figures for `Cc1cc(F)cc(C(=O)NCC2CCN(CCNC(=O)C(C)(C)C(F)(F)F)CC2)c1` [Compound 489, 3-fluoro-5-methyl-N-((1-(2-(3,3,3-trifluoro-2,2-dimethylpropanamido)ethyl)piperidin-4-yl)methyl)benzamide] were 120 nM, 370 nM and 8800 nM.
Consider `COc1cc(F)cc(C(=O)NCC2CCN(CCNC(=O)C(C)(C)C(F)(F)F)CC2)c1` [Compound 490, 3-fluoro-5-methoxy-N-((1-(2-(3,3,3-trifluoro-2,2-dimethylpropanamido)ethyl)piperidin-4-yl)methyl)benzamide], for which the concentration for half-maximal inhibition (IC50) in data set [1] was 150 nM; in data set [2], under 300 nM; on hERG K+ channel, 10900 nM.
Regarding `CC(C)(C(=O)NCCN1CCC(CNC(=O)c2cccc(C(F)(F)F)c2)CC1)C(F)(F)F` [Compound 492, N-((1-(2-(3,3,3-trifluoro-2,2-dimethylpropanamido)ethyl)piperidin-4-yl)methyl)-3-(trifluoromethyl)benzamide], the values for the IC50 (in data set [1]; in data set [2]; on hERG K+ channel) were 90 nM, under 300 nM and 4700 nM, respectively.
Taken in the same sequence, the figures for `CC(C)(C(=O)NCCN1CCC(CNC(=O)c2cccc(Br)c2)CC1)C(F)(F)F` [Compound 493, 3-bromo-N-((1-(2-(3,3,3-trifluoro-2,2-dimethylpropanamido)ethyl)piperidin-4-yl)methyl)benzamide] were 60 nM, under 300 nM and 2500 nM.
For `CC(C)(C(=O)NCCN1CCC(CNC(=O)c2cc(F)cc(Cl)c2)CC1)C(F)(F)F` [Compound 495, 3-chloro-5-fluoro-N-((1-(2-(3,3,3-trifluoro-2,2-dimethylpropanamido)ethyl)piperidin-4-yl)methyl)benzamide], the IC50 in data set [1] is 90 nM; in data set [2], under 300 nM; at hERG K+ channel, 4100 nM.
On the same counts, the results for `COc1cc(F)cc(C(=O)NCC2CCN(CCNC(=O)C3(C(F)(F)F)CC3)CC2)c1` [Compound 499, 3-fluoro-5-methoxy-N-((1-(2-(1-(trifluoromethyl)cyclopropanecarbox-amido)ethyl)piperidin-4-yl)methyl) benzamide] are 140 nM, under 300 nM and 11100 nM.
On to `COc1cc(OC)cc(C(=O)NCC2CCN(CCNC(=O)C3(C(F)(F)F)CC3)CC2)c1` [Compound 500, 3,5-dimethoxy-N-((1-(2-(1-(trifluoromethyl)cyclopropanecarbox-amido)ethyl)piperidin-4-yl)methyl) benzamide], for which the figures for the IC50 (in data set [1]; in data set [2]; at hERG K+ channel) were 180 nM, under 300 nM and 5500 nM, respectively.
Taken in the same sequence, the figures for `O=C(NCC1CCN(CCNC(=O)C2(C(F)(F)F)CC2)CC1)c1cccc(Br)c1` [Compound 501, 3-bromo-N-((1-(2-(1-(trifluoromethyl)cyclopropanecarbox-amido)ethyl)piperidin-4-yl)methyl) benzamide] were 120 nM, under 300 nM and 5600 nM.
As to `O=C(NCC1CCN(CCNC(=O)C2(C(F)(F)F)CCC2)CC1)c1cc(F)cc(Cl)c1` [Compound 511, 3-chloro-5-fluoro-N-((1-(2-(1-(trifluoromethyl)cyclobutanecarboxamido)ethyl)piperidin-4-yl)methyl)benzamide], the IC50 was 90 nM in data set [1], under 300 nM in data set [2] and 2900 nM at hERG K+ channel.
As to `COc1cc(F)cc(C(=O)NCC2CCN(CCNC(=O)C3(C(F)(F)F)CCC3)CC2)c1` [Compound 513, 3-fluoro-5-methoxy-N-((1-(2-(1-(trifluoromethyl)cyclobutanecarboxamido)ethyl)piperidin-4-yl)methyl)benzamide], the half-inhibitory concentration (IC50) in data set [1] was 90 nM; in data set [2] it was under 300 nM; at hERG K+ channel (human), at least 16600 nM.
In the case of `O=C(CN1CCC(CNC(=O)c2cc(F)cc(Cl)c2)CC1)NC1CCCC1` [Compound 531, 3-chloro-N-((1-(2-(cyclopentylamino)-2-oxoethyl)piperidin-4-yl)methyl)-5-fluorobenzamide], the half-maximal inhibitory concentration (IC50) is 80 nM in data set [1], under 300 nM in data set [2] and 2400 nM against hERG K+ channel.
Consider `CC(C)(C)[S+]([O-])NCCN1CCC(CNC(=O)c2cc(F)cc(C(F)(F)F)c2)CC1` (stereo not drawn) [Compound 537, N-((1-(2-(1,1-dimethylethylsulfinamido)ethyl)piperidin-4-yl)methyl)-3-fluoro-5-(trifluoromethyl)benzamide], for which the IC50 was 360 nM in data set [1], 2470 nM in data set [2] and at least 17000 nM on hERG K+ channel (human).
Consider `COCC(C)(C)NC(=O)CN1CCC(CNC(=O)c2cc(F)cc(Cl)c2)CC1` [Compound 538, 3-chloro-5-fluoro-N-((1-(2-(1-methoxy-2-methylpropan-2-ylamino)-2-oxoethyl)piperidin-4-yl)methyl)benzamide], for which the results for the IC50 (in data set [1]; in data set [2]; against hERG K+ channel) were 60 nM, under 300 nM and 13000 nM, respectively.
As for `COc1cc(F)cc(C(=O)NCC2CCN(CC(=O)N(C)C(C)(C)C)CC2)c1` [Compound 541, N-((1-(2-(tert-butyl(methyl)amino)-2-oxoethyl)piperidin-4-yl)methyl)-3-fluoro-5-methoxybenzamide], the 50% inhibitory concentration (IC50) in data set [1] is 410 nM; in data set [2], 310 nM; on hERG K+ channel (human), at least 17000 nM.
With `CN(C(=O)CN1CCC(CNC(=O)c2cccc(C(F)(F)F)c2)CC1)C(C)(C)C` [Compound 542, N-((1-(2-(tert-butyl(methyl)amino)-2-oxoethyl)piperidin-4-yl)methyl)-3-(trifluoromethyl)benzamide], the IC50 was found to be 450 nM in data set [1], 980 nM in data set [2] and 6400 nM against hERG K+ channel.

The values are drawn from patent US8569344B2, “N-piperidinyl acetamide derivatives as calcium channel blockers” (Zalicus Pharmaceuticals Ltd., priority 2008, dated 2013).
